The record followed here is PubChem BioAssay (NCI).

Assay in all cases: NCI anticancer screen, dose series, 48 h
The test system of assay [1] is CAKI-1 renal.
Assay [2] concerns COLO 205 colon.
Assay [3] relates to NCI-H522 lung.
Assay [4] has as its system SN12C renal.
The subject of assay [5] is SNB-75 CNS.
In assay [6] the test system is IGROV1 ovarian.
Assay [7] has as its system U251 CNS.
Assay [8] deals with MALME-3M melanoma.
Assay [9] relates to MCF7 breast.
Assay [10] concerns BT-549 breast.

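Each compound was tested at five concentrations against cells in 96-well plates for 48 hours. GI50 marks 50% less growth. TGI denotes the concentration required for complete inhibition of growth.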 Residues, ends and D or L forms follow the SMILES beside them. *: point of attachment. Cbz = O=C(OCc1ccccc1)*

With `CC[PH+](CC)CC.CC[PH+](CC)CC.[Au]`, the GI50 is 6.8 µM in [1]; 2.52 µM in assay [2]; 0.308 µM in assay [3]; 16.1 µM in [4]; 15 µM in [5]; 14.5 µM in assay [6]. In addition, the GI50 in [7] is 8.21 µM; in [8], 11.4 µM. Also, the TGI is 13.5 µM in [1]; 7.32 µM in assay [2]; 1.25 µM in assay [3]; 31.4 µM in assay [4]; 29 µM in [5]; 34.3 µM in assay [6]. The TGI in assay [7] came out at 24.3 µM; in [8], 24.7 µM.

For `CCNCCNc1cc(-c2ccc(C(F)(F)F)cc2)c(C#N)c2nc3cc(Cl)c(Cl)cc3n12`, the GI50 in [1] is 1.45 µM; in [2], 1.68 µM; in assay [3], 1.78 µM; in assay [4] it was 1.77 µM; in [5] it was 1.38 µM; in assay [7], 1.67 µM. Moreover, the GI50 in assay [9] is 0.168 µM. The TGI in [1] was found to be 2.82 µM; in assay [2] it was 3.22 µM; in assay [3], 3.37 µM; in [4], 3.46 µM; in [5], 2.69 µM; in assay [7], 3.08 µM. Moreover, the TGI in assay [9] was determined as 0.352 µM.

For the compound `CN(C)CCNC(=O)c1ccc2oc3cc4ccccc4c(=O)n3c2c1`, the GI50 was 17.1 µM in assay [1]; 32.1 µM in assay [2]; 18.1 µM in assay [3]; 46.6 µM in [4]; 22.9 µM in assay [5]; 27.4 µM in [10]. The figures for the GI50 in [6], in [7] and in [9] were 23.1 µM, 34.3 µM and 64.1 µM, respectively. Moreover, the TGI in [1] is 55.2 µM; in [2] it was above 100 µM; in [3], 39.8 µM; in [4], above 100 µM; in [5], 61.2 µM; in assay [10], 66.2 µM. Moreover, the TGI in [6], in [7] and in assay [9] was above 100 µM each time.

Regarding `N#Cc1c(N/N=C\c2ccc(Cl)cc2)nc(N)nc1N1CCOCC1`, the GI50 was 43.3 µM in assay [1]; 66.2 µM in assay [2]; 32.5 µM in assay [3]; 55.1 µM in assay [4]; 57.3 µM in [5]; above 100 µM in [10]. Besides, the results for the GI50 in assay [6], in [7] and in assay [9] were 26 µM, 40.4 µM and 77.3 µM, respectively. Further, the TGI in [1], in assay [2], in assay [3], in assay [4], in assay [5] and in assay [10] was above 100 µM each time. Also, the figures for the TGI in assay [6], in assay [7] and in assay [9] were 97.4 µM, above 100 µM and above 100 µM, respectively.

Turning to `COC(=O)C1[C@H](c2ccc3c(c2)OCO3)OC(=O)[C@]1(C(=O)OC)C(=O)c1ccc(OC)c(OC)c1` (stereo partly specified), the TGI in [1], in assay [2], in assay [4], in assay [5], in [6] and in assay [7] was above 100 µM in each case. For the same compound, the TGI in assay [8] was above 100 µM.

On to `CC(C)C[C@@H](C=O)NC(=O)[C@H](CC(C)C)NC(=O)[C@H](CC(C)C)NC(=O)OCc1ccccc1` (Cbz-Leu-Leu-Leu-aldehyde), for which the GI50 was 0.404 µM in assay [2]; 0.212 µM in assay [3]; 0.315 µM in assay [4]; 0.337 µM in assay [10]; 0.444 µM in assay [6]; 0.332 µM in assay [7]. Besides, the GI50 in [9] was 0.422 µM. The TGI in [2] came out at 1.62 µM; in assay [3], 0.614 µM; in [4], 1.01 µM; in assay [10] it was 1.25 µM; in [6], 3.08 µM; in assay [7], 1.07 µM. In assay [9], this compound returned a TGI of 14 µM.

For `c1ccc2c(CNCCCCCCCCNCc3cccc4ccccc34)cccc2c1`, the TGI came out at 5.01 µM in assay [1]; 3.43 µM in [2]; 3.24 µM in assay [3]; 19.2 µM in [4]; 3.35 µM in [5]; 16.2 µM in assay [6]. The values for the TGI in assay [7] and in [8] were 3.13 µM and 3.41 µM, respectively.

As for `NC(N)=N/N=C/c1c(-c2cccnc2)nc2sc(Cl)cn12`, the GI50 in assay [1] was 20.5 µM; in assay [3], 30.6 µM; in [10], 16.3 µM; in assay [6], 17.5 µM; in assay [7] it was 13.3 µM; in [9], 8.27 µM. Besides, the TGI in assay [1] is 43.4 µM; in assay [3] it was above 100 µM; in [10], 32.4 µM; in assay [6] it was 58.5 µM; in [7] it was 26.1 µM; in assay [9], above 100 µM.

For the compound `Cn1c(-c2c(N)n(Cc3ccc(F)cc3)c3nc(C#N)c(C#N)nc23)nc2ccccc21`, the GI50 in assay [1] was 1.36 µM; in assay [2] it was 1.52 µM; in assay [4] it was 2.09 µM; in [10] it was 2.79 µM; in assay [7], 3.18 µM; in [9] it was 2.19 µM. Further, the TGI in [1] is 4.43 µM; in [2], 6.26 µM; in [4] it was 20 µM; in assay [10] it was 18.2 µM; in assay [7] it was 15 µM; in assay [9] it was above 50 µM.

Regarding `O=[N+]([O-])C=C1c2ccccc2-c2ccccc21`, the TGI in assay [1] was determined as 24.5 µM; in assay [2], 3.33 µM; in assay [4] it was 35.7 µM; in assay [5], 40.7 µM.

As to `N#CCc1nnc(N)o1`, the TGI in [1], in assay [3], in [4], in [5], in assay [6] and in assay [7] was above 100 µM each time. This compound also yielded a TGI in assay [8] above 100 µM.

Regarding `Cc1ccc(C2=Nc3ccccc3S(=O)C(c3ccc4c(c3)OCO4)C2)cc1` (stereo unspecified), the TGI in assay [1] is above 100 µM; in assay [2], above 100 µM; in assay [3] it was 44.7 µM; in assay [4], 33.5 µM; in [5], above 100 µM; in [6] it was above 100 µM. The TGI in assay [7] was 31.1 µM; in assay [8], above 100 µM.

On to `C=CC(=O)Nc1cccc(Oc2nc(Nc3ccc(N4CCN(C)CC4)cc3OC)ncc2Cl)c1`, for which the GI50 in assay [1] is 0.985 µM; in assay [2], 2.28 µM; in [3] it was 0.308 µM; in assay [4], 1.84 µM; in [5] it was 1.52 µM; in assay [10] it was 1.99 µM. Moreover, the GI50 in [6] is 1.29 µM; in assay [7] it was 1.49 µM. The TGI stood at 2.44 µM in assay [1]; 5.07 µM in assay [2]; 1.75 µM in [3]; 8.31 µM in assay [4]; 3.98 µM in assay [5]; 4.58 µM in assay [10]. Also, the values for the TGI in assay [6] and in assay [7] were 3.56 µM and 3.03 µM, respectively.

With `C=C1CC2(CCS(=O)(=O)c3ccccc32)OC1=O` (stereo unspecified), the TGI is 3.3 µM in assay [1]; 9.33 µM in assay [2]; 11.4 µM in assay [3]; 34.1 µM in assay [6]; 26 µM in [7]; 26.3 µM in assay [8].

`C=C1C(=O)O[C@H]2[C@H]1CC/C(CNC(=O)/C=C/c1ccccc1F)=C\CC[C@@]1(C)O[C@@H]21`: the GI50 in assay [1] is 1.3 µM; in assay [2], 1.4 µM; in assay [3] it was 0.399 µM; in [4], 1.62 µM; in assay [5], 2.18 µM; in assay [10], 1.48 µM. Also, the values for the GI50 in assay [6], in [7] and in [8] were 1.69 µM, 1.86 µM and 1.54 µM, respectively. Moreover, the TGI in assay [1] was found to be 2.67 µM; in assay [2], 2.96 µM; in [3], 1.64 µM; in assay [4], 4.41 µM; in assay [5], 8.29 µM; in assay [10], 3.45 µM. The values for the TGI in assay [6], in assay [7] and in assay [8] were 4.65 µM, 3.75 µM and 3.52 µM, respectively.

As for `COc1cc(O)c2c(c1)C(=O)C1=C(C2=O)C(O)C[C@@](C)(O)C1` (stereo partly specified), the TGI in assay [1] came to 14 µM; in [2] it was 0.844 µM; in assay [3], 2.47 µM; in assay [4] it was 2.65 µM; in assay [6] it was 3.71 µM; in assay [7], 6.34 µM. For the same compound, the TGI in [8] stood at 2.11 µM.

Consider `Cc1ccc(C(=O)NCCN(C)C)c2nc3ccccc3cc12`, for which the TGI is 25.6 µM in assay [1]; above 100 µM in [2]; 10.2 µM in [4]; 3.54 µM in assay [5]; above 100 µM in assay [6]; 4.09 µM in assay [7]. Moreover, in [8], the TGI is above 100 µM.

Consider `CCCCCCCCCCOC(=O)NCCC`, for which the TGI in [1] is above 100 µM; in [2], above 100 µM; in assay [3] it was 50.4 µM; in assay [4], 86.3 µM; in assay [5], above 100 µM; in [6] it was above 100 µM. Moreover, the TGI was 80.6 µM in assay [7] and 54.8 µM in assay [8].

`O=C(O)c1c2c(cc3c(=O)cc(-c4ccccc4)oc13)CCCC2`: the TGI in [2], in assay [3], in assay [4], in [5], in assay [6] and in assay [7] was above 100 µM throughout. This compound yielded a TGI in [8] above 100 µM.

`O=C(O)CN(c1ccc(F)cc1)S(=O)(=O)c1ccccc1`: the TGI in assay [1], in [2], in [3], in assay [4], in assay [5] and in [6] was above 100 µM throughout. In addition, the TGI in assay [7] and in assay [8] was above 100 µM in each case.

In the case of `COC12OCCN(C)C1=CC(=O)C1(C)N=NCC12` (stereo unspecified), the TGI in assay [1], in [2], in [3], in assay [4], in assay [5] and in [6] was above 100 µM throughout. Moreover, the TGI in assay [7] and in [8] was above 100 µM throughout.

In the case of `Cc1c2c(nn1-c1ccc(S(=O)(=O)NC(=S)NC(=O)c3ccccc3)cc1)-c1ccccc1CC2`, the GI50 is 16.1 µM in assay [1]; 44.9 µM in assay [2]; 50.4 µM in assay [3]; 34.4 µM in assay [4]; 59.5 µM in [5]; above 100 µM in assay [6]. Moreover, the values for the GI50 in assay [7] and in assay [9] were 43.3 µM and 35.9 µM, respectively. Moreover, the TGI in assay [1] is 51.9 µM; in assay [2] it was above 100 µM; in assay [3], above 100 µM; in [4], above 100 µM; in assay [5], above 100 µM; in [6], above 100 µM. For the same compound, the TGI in [7] and in assay [9] was above 100 µM throughout.

Consider `O=C1c2cc(F)ccc2-c2c1c1ccc([N+](=O)[O-])cc1c(=O)n2CCCBr`, for which the GI50 in [1] is 27.3 µM; in assay [2] it was 46.8 µM; in assay [3], 4.87 µM; in [4], 27.4 µM; in assay [5], 2.97 µM; in assay [6], 17.4 µM. Also, the GI50 in assay [7] was 9.87 µM; in assay [9] it was 1.35 µM; in assay [8], 66.3 µM. Also, the TGI in assay [1] was above 100 µM; in [2] it was above 100 µM; in assay [3], above 100 µM; in assay [4], above 100 µM; in [5], 50.5 µM; in assay [6] it was above 100 µM. Besides, the TGI in assay [7], in assay [9] and in [8] was above 100 µM in each case.

Consider `CCOC(=O)CN(c1ccccc1)c1nc(=[N+](C)C)ss1`, for which the TGI in assay [1] was 87.8 µM; in assay [2], 15.4 µM; in [3] it was 0.492 µM; in [4] it was 36.7 µM; in assay [5], above 100 µM; in assay [7] it was 41.5 µM. The compound also displayed a TGI in assay [8] of 70.4 µM.

As for `CC(C)=NNC(=S)NC12CC3CC(CC(C3)C1)C2`, the TGI in assay [1], in [2], in assay [3], in [4], in [5] and in [6] was above 100 µM throughout. The same compound had a TGI in assay [7] above 100 µM.
